Experimental findings from patent US20030044399A1, “Method of treatment” (SmithKline Beecham Corporation, priority 1998, published 2003) are described below.

The test has as its target Cruzain (Trypanosoma cruzi, UniProt P25779). Kind of test: Cysteine protease inhibition, progress curve method, cruzain. In kind it is biochemical. The settings on record: 4 uM Ac-Lys-Glu-Lys-Leu-Arg-AMC, 100 mM Na acetate pH 5.5, 5 mM cysteine; read-out: Cruzain Ki. As for the experimental part:
Standard assay conditions for the determination of kinetic constants used 10 uM fluorogenic peptide substrate, Cbz-Phe-Arg-AMC for the cysteine proteases from Leishmania spp and Schistosoma Mansoni, Cbz-Leu-Arg-AMC for the cysteine proteases from Plasmodium falciparum and Trypanosoma brucei rhodesiensi, and Ac-Lys-Glu-Lys-Leu-Arg-AMC (4 uM final substrate concentration) for the cysteine protease from Trypoanosoma cruzi, and were determined in 100 mM Na acetate at pH 5.5 containing 5 mM cysteine. Stock substrate solutions were prepared at concentrations of […] in DMSO with 10 uM (4 uM for Ac-Lys-Glu-Lys-Leu-Arg-AMC) final substrate concentration in the assays. The final DMSO concentration was 2% and the final volume was 100 uL. All assays were conducted at ambient temperature. Product progress curves were generated over 20 to 30 minutes following formation of AMC product.
Potential inhibitors were evaluated using the progress curve method. Assays were carried out in the presence of variable concentrations of test compound. Reactions were initiated by addition of enzyme to buffered solutions of inhibitor and substrate. Data analysis was conducted according to one of two procedures depending on the appearance of the progress curves in the presence of inhibitors. For those compounds whose progress curves were linear, apparent inhibition constants (Ki,app) were calculated according to equation 1 (Brandt et al., Biochemitsry, 1989, 28, 140):
v=VmA/[Ka(1+I/Ki,app)+A] (1)
Where v is the velocity of the reaction with maximal velocity Vm, A is the concentration of substrate with Michaelis constant of Ka, and I is the concentration of inhibitor.
[AMC]=vsst+(v0−vss)[1−exp (−kobst)]/kobs (2)
Where [AMC] is the concentration of product formed over time t, v0 is the initial reaction velocity and vss is the final steady state rate. Values for kobs were then analyzed as a linear function of inhibitor concentration to generate an apparent second order rate constant (kobs/inhibitor concentration or kobs/[I]) describing the time-dependent inhibition. A complete discussion of this kinetic treatment has been fully described (Morrison et al., Adv. Enzymol. Relat. Areas Mol. Biol., 1988, 61, 201).
Exemplary inhibition data for the compounds used in the present method collected in accordance with the above-described procedure are listed in Table I.

The structures appear in SMILES notation.

Chain of Cruzain (P25779 123-337): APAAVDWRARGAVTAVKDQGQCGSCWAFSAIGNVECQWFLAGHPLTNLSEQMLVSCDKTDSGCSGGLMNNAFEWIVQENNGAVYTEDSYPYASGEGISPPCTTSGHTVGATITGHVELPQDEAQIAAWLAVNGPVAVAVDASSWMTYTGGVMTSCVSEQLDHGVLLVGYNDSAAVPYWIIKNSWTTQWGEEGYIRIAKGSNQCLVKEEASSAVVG

Take `COc1ccc(S(=O)(=O)N2CCC[C@H](NC(=O)[C@H](CC(C)C)NC(=O)CNC(=O)c3ccco3)C(=O)C2)cc1` [Example 82]: the inhibition constant Ki came to 17 nM. For `CC(C)C[C@@H](NC(=O)c1cc2ccccc2cn1)C(=O)N[C@@H]1CCCN(S(=O)(=O)c2ccccn2)CC1=O` (stereo in doubt) [Example 28, Isoquinoline-3-carboxylic acid {(S)-3-methyl-1-[3-oxo-1-(pyridine-2-sulfonyl)-azepan-4-ylcarbamoyl]-butyl}amide] the value was 24 nM; for `CC(C)C[C@H](NC(=O)c1cc2ccccc2s1)C(=O)N[C@@H]1CCCN(S(=O)(=O)c2cccs2)CC1=O` [Example 146, Benzo[b]thiophene-2-carboxylic acid-{(S)-3-methyl-1-[3-oxo-1-(thiophene-2-sulfonyl)-azepan-4-ylcarbamoyl]-butyl}-amide], 6.7 nM. For `CC(C)C[C@@H](NC(=O)c1cc2cc(OCCN3CCCCC3)ccc2o1)C(=O)NC1CCCN(S(=O)(=O)c2ccccc2)CC1=O` (single isomer, unassigned) [Example 14] the value was 67 nM; for `CC(C)C[C@@H](NC(=O)c1cc2ccccc2[nH]1)C(=O)N[C@@H]1CCCN(S(=O)(=O)c2ccccc2)CC1=O` (stereo in doubt) [Example 11, 1H-Indole-2-carboxylic acid [(S)-1-(1-benzenesulfonyl-3-oxo-azepan-4-ylcarbamoyl)-3-methyl-butyl]amide], 100 nM. To `CC(C)C[C@H](NC(=O)c1cc2ccccc2s1)C(=O)N[C@H]1CCCN(S(=O)(=O)c2ccccc2F)CC1=O` [Example 95, Benzo[b]thiophene-2-carboxylic acid-{(S)-1-[1-(2-fluoro-benzenesulfonyl)-3-oxo-azepan-4-ylcarbamoyl]-3-methyl-butyl}-amide] belongs 11 nM. Consider `CC(C)C[C@@H](NC(=O)c1cc2cc(OCCN3CCOCC3)ccc2o1)C(=O)N[C@@H]1CCCN(S(=O)(=O)c2ccccn2)CC1=O` [Example 18, 5-(2-Morpholino-4-yl-ethoxy)-benzofuran-2-carboxylic acid {(S)-3-methyl-1-[3-oxo-1-(pyridine-2-sulfonyl)-azepan-4-ylcarbamoyl]-butyl}1-amide], for which the Ki came to 6.3 nM. To `COc1ccc2oc(C(=O)N[C@H](CC(C)C)C(=O)N[C@@H]3CCCN(S(=O)(=O)c4ccccn4)CC3=O)cc2c1` (stereo in doubt) [Example 33, 5-Methoxy-benzofuran-2-carboxylic acid {(S)-3-methyl-1-[3-oxo-1-(pyridine-2-sulfonyl)-azepan-4-ylcarbamoyl]-butyl}amide] belongs 14 nM. For `CC(C)CC(NC(=O)c1cc2ccccc2o1)C(=O)N[C@@H]1CCCN(S(=O)(=O)c2ccccc2C#N)CC1=O` (stereo partly shown) [Example 115] the value was 14 nM; for `Cc1c(C(=O)N[C@H](CC(C)C)C(=O)N[C@H]2CCCN(S(=O)(=O)c3cccc[n+]3[O-])CC2=O)oc2ccc(F)cc12` [Example 192, 5-Fluoro-3-methyl-benzofuran-2-carboxylic acid {(S)-3-methyl-1-[3-oxo-1-(1-oxy-pyridine-2-sulfonyl)-azepan-4-ylcarbamoyl]-butyl}-amide], 14 nM; for `CC(C)C[C@@H](NC(=O)c1ccc(S(C)(=O)=O)cc1)C(=O)N[C@@H]1CCCN(S(=O)(=O)c2ccc(F)cc2)CC1=O` [Example 121, 4-Methansulfonyl-N—{(S)-1-[4-fluoro-benzenesulfonyl)-3-oxo-azepan-4-carbamoyl]-3-methyl-butyl-benzamide], 11 nM. For `CC(C)C[C@@H](NC(=O)c1ccc2ccccc2n1)C(=O)N[C@@H]1CCCN(S(=O)(=O)c2ccccn2)CC1=O` (stereo in doubt) [Example 24, Quinoline-2-carboxylic acid {(S)-3-methyl-1-[3-oxo-1-(pyridine-2-sulfonyl)-azepan-4-ylcarbamoyl]-butyl}amide] the value was 23 nM; for `Cc1ccc(C(=O)N[C@H](CC(C)C)C(=O)N[C@@H]2CCCN(S(=O)(=O)c3cccc[n+]3[O-])CC2=O)cn1` [Example 118], 18 nM; for `CC(C)CCC(=O)N1CCCC(NC(=O)[C@@H](CC(C)C)NC(=O)c2cc3cc(OCCN4CCOCC4)ccc3o2)C(=O)C1` (stereo partly drawn) [Example 15, 5-(2-Morpholino-4-yl-ethoxy)-benzofuran-2-carboxylic acid {(S)-3-methyl-1-[1-(4-methyl-2entanoyl)-3-oxo-azepan-4-ylcarbamoyl]-butyl}-amide], 24 nM.

In the case of `CC(C)CC(NC(=O)c1cc2ccccc2o1)C(=O)NC1CCC(C)N(S(=O)(=O)c2ccccn2)CC1=O` (stereo in doubt) [Example 181, Benzofuran-2-carboxylic acid {(S)-3-methyl-1-[(4S,7S)-7-methyl-3-oxo-1-(pyridine-2-sulfonyl)-azepan-4-ylcarbamoyl]-butyl}-amide], the Ki stood at 15 nM.

For `CC(C)C[C@H](NC(=O)[C@H]1CCC(=O)N1Cc1ccccc1)C(=O)N[C@@H]1CCCN(S(=O)(=O)c2ccccn2)CC1=O` [Example 158], the Ki stood at 6.8 nM.

With `CC(C)C[C@@H](NC(=O)c1cc2cc(OCCN3CCOCC3)ccc2o1)C(=O)N[C@@H]1CCCN(S(=O)(=O)c2ccccc2)CC1=O` (single isomer, unassigned) [Example 7], the inhibition constant Ki amounted to 23 nM. Consider `CC(C)C[C@@H](NC(=O)c1cc(Br)c(Br)s1)C(=O)N[C@@H]1CCCN(S(=O)(=O)c2cccc[n+]2[O-])CC1=O` [Example 61, 4,5-Dibromo-thiophene-2-carboxylic acid {(S)-3-methyl-1-[3-oxo-1-(1-oxy-pyridine-2-sulfonyl)-azepan-4-ylcarbamoyl]-butyl}amide], for which the inhibitory constant (Ki) worked out at 40 nM. To `CC(C)C[C@@H](NC(=O)c1cc2ccccc2o1)C(=O)N[C@@H]1CCCN(S(=O)(=O)c2ccccc2)CC1=O` (stereo in doubt) [Example 12, Benzofuran-2-carboxylic acid [(S)-1-(1-benzenesulfonyl-3-oxo-azepan-4-ylcarbamoyl)-3-methyl-butyl]amide] belongs 16 nM. For `CC(C)C[C@H](NC(=O)c1cc2ccccc2o1)C(=O)N[C@H]1CCCN(S(=O)(=O)c2cccs2)CC1=O` [Example 38, Benzofuran-2-carboxylic acid {(S)-3-methyl-1-[3-oxo-1-(thiophene-2-sulfonyl)-azepan-4-ylcarbamoyl]-butyl}-amide] the value was 4.5 nM; for `Cc1cccc(S(=O)(=O)N2CCC[C@@H](NC(=O)[C@@H](CC(C)C)NC(=O)c3cc4ccccc4o3)C(=O)C2)n1` (stereo in doubt) [Example 172, Benzofuran-2-carboxylic acid {(S)-3-methyl-1-[1-(6-methyl-pyridine-2-sulfonyl)-3-oxo-azepan-4-ylcarbamoyl]-butyl}amide], 7.4 nM; for `CC(C)C[C@@H](NC(=O)COc1ccc(F)cc1)C(=O)N[C@@H]1CCCN(S(=O)(=O)c2ccccn2)CC1=O` (stereo in doubt) [Example 37, (S)-2-[2-(4-Fluoro-phenoxy)-acetylamino]-4-methyl-pentanoic acid [3-oxo-(pyridine-2-sulfonyl)-azepan-4-yl]-amide], 33 nM. Turning to `COc1ccc2oc(C(=O)N[C@H](CC(C)C)C(=O)N[C@@H]3CCCN(S(=O)(=O)c4cccc[n+]4[O-])CC3=O)cc2c1` [Example 53, 5-Methoxy-benzofuran-2-carboxylic acid {(S)-3-methyl-1[3-oxo-1-(1-oxy-pyridine-2-sulfonyl)-azepan-4-ylcarbamoyl]-butyl}amide], the inhibitory constant (Ki) was determined as 10 nM.

`COc1ccc(S(=O)(=O)N2CCCC(NC(=O)C(CC(C)C)NC(=O)c3cc4ccccc4o3)C(=O)C2)cc1` (stereo in doubt) [Example 74, Benzofuran-2-carboxylic acid {(S)-1-[1-(4-methoxy-benzenesulfonyl)-3-oxo-azepan-4-ylcarbamoyl]-3-methyl-butyl}-amide]: the Ki turned out to be 24 nM. For `CC(C)C[C@@H](NC(=O)c1ccc2c(c1)OCCCO2)C(=O)N[C@@H]1CCCN(S(=O)(=O)c2cccc[n+]2[O-])CC1=O` [Example 60, 3,4-Dihydro-2H-benzo[b][1,4]dioxepine-7-carboxylic acid {(S)-3-methyl-1-[3-oxo-1-(1-oxy-pyridine-2-sulfonyl)-azepan-4-ylcarbamoyl]butyl}amide] the value was 9.8 nM; for `CC(C)C[C@H](NC(=O)c1cc2ccccc2o1)C(=O)N[C@H]1CCCN(S(=O)(=O)c2ccccc2F)CC1=O` [Example 91], 6.2 nM. To `CC(C)C[C@@H](NC(=O)c1cc2cc(OCCN3CCCC3)ccc2o1)C(=O)NC1CCCN(S(=O)(=O)c2ccccc2)CC1=O` (single isomer, unassigned) [Example 13] belongs 32 nM; to `CC(C)CC(NC(=O)c1ccc(S(C)(=O)=O)cc1)C(=O)N[C@@H]1CCCN(S(=O)(=O)c2ccccc2C#N)CC1=O` (stereo partly shown) [Example 114], 14 nM.
